Data: ChEMBL document CHEMBL5729018, “MAPK inhibitors” (2022)

Assays:
[1] = biological target: T1, Mitogen-activated protein kinase 14 (Homo sapiens, UniProt Q16539); assay: (§1) Fluorescence polarisation (FP) assay: FP signals were measured with a PHERAstar microplate reader (BMG Labtech) using black, low-binding half-area 96 well plates (Corning). Each binding data point was carried out in duplicate or triplicate. Data were recorded in millipolarisation (mP) units and measured at an excitation wavelength of 485 nm and an emission wavelength of 520 nm. Tris(hydroxymethyl)aminomethane (Tris) assay buffer was used in all binding experiments and consisted of 10 mM Tris, 50 nM potassium chloride, and 3.5 mM 3-((3-cholamidopropyl)dimethylammonium)-1-propanesulfonate (Chaps) at pH 8.0.
[2] = biological target: T1, Mitogen-activated protein kinase 14; assay: as §1, with “Each” for “Fluorescence polarisation (FP) assay: FP signals were measured with a PHERAstar microplate reader (BMG Labtech) using black, low-binding half-area 96 well plates (Corning). Each”
[3] = biological target: T1, Mitogen-activated protein kinase 14; assay: as §1, with “assay for active p38alpha MARK:” for “assay:”, “8.0. The recombinant active His-tag p38α MAPK used in the ligand binding assays were prepared as described by Bukhtiyarova et al.” for “8.0.”

T1 sequence (Q16539 whole entry): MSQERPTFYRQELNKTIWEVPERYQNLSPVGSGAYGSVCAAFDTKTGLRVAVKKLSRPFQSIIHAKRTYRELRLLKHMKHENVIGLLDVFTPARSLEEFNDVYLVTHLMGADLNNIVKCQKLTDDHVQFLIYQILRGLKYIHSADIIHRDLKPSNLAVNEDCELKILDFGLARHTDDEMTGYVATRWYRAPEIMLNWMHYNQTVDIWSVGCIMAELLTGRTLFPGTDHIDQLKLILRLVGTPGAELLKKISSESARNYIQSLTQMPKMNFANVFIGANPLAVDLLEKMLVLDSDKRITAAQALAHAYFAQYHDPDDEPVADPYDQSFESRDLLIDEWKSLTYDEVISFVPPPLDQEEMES

| Compound | IC50 [1] [nM] | Ki [2] [nM] | Ki [3] [nM] |
| --- | --- | --- | --- |
| OCCC#Cc1cc(-c2ccncc2)c(-c2ccc(F)cc2)s1 | 160 | 2000 | 560 |
| OCC#Cc1cc(-c2ccncc2)c(-c2ccc(F)cc2)s1 | – | 2100 | 630 |
| OCCC#Cc1nc(-c2ccc(F)cc2)c(-c2ccncc2)n1CCCc1ccccc1 [RWJ-67657] | 30 | – | – |
